Laboratory results: ChEMBL document CHEMBL1201861, “Genomics of Drug Sensitity in Cancer screening data, Wellcome Trust Sanger Institute”

Legend:
Experiment in all cases: cells
Assay type in all cases: functional, cell-based, Homo sapiens
CW-2 = conditions: Homo sapiens, CW-2;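 note: growth inhibition of CW-2 cells, read out by a cell viability assay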
Description: SANGER: Inhibition of human CW-2 cell growth in a cell viability assay.

EC-GI-10 = conditions: Homo sapiens, EC-GI-10
Description: SANGER: Inhibition of human EC-GI-10 cell growth in a cell viability assay.

ES4 = conditions: Homo sapiens, ES4;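 note: growth inhibition of human ES4 cells, read out by a cell viability assay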
Description: SANGER: Inhibition of human ES4 cell growth in a cell viability assay.

ES5 = conditions: Homo sapiens, ES5;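 note: growth inhibition of human ES5 cells, read out by a cell viability assay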
Description: SANGER: Inhibition of human ES5 cell growth in a cell viability assay.

ES6 = conditions: Homo sapiens, ES6;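 note: growth inhibition of human ES6 cells, read out with a cell viability assay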
Description: SANGER: Inhibition of human ES6 cell growth in a cell viability assay.

ES7 = conditions: Homo sapiens, ES7;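 note: growth inhibition of cultured human ES7 cells, read out as cell viability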
Description: SANGER: Inhibition of human ES7 cell growth in a cell viability assay.

GI-ME-N = conditions: Homo sapiens, GI-ME-N;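 note: growth inhibition of human GI-ME-N cells, read out with a cell viability assay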
Description: SANGER: Inhibition of human GI-ME-N cell growth in a cell viability assay.

JVM-2 = conditions: Homo sapiens, JVM-2;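 note: growth inhibition of JVM-2 cells determined by a cell viability assay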
Description: SANGER: Inhibition of human JVM-2 cell growth in a cell viability assay.

JVM-3 = conditions: Homo sapiens, JVM-3;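 note: growth inhibition of human JVM-3 cells, read out with a cell viability assay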
Description: SANGER: Inhibition of human JVM-3 cell growth in a cell viability assay.

K562 = conditions: Homo sapiens, K562
Description: SANGER: Inhibition of human K-562 cell growth in a cell viability assay.

KALS-1 = conditions: Homo sapiens, KALS-1;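 note: growth inhibition of KALS-1 cells, determined with a cell viability assay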
Description: SANGER: Inhibition of human KALS-1 cell growth in a cell viability assay.

KARPAS-299 = conditions: Homo sapiens, KARPAS-299
Description: SANGER: Inhibition of human KARPAS-299 cell growth in a cell viability assay.

KARPAS-45 = conditions: Homo sapiens, KARPAS-45;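 note: inhibition of cell line growth, read out through a viability assay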
Description: SANGER: Inhibition of human KARPAS-45 cell growth in a cell viability assay.

KE-37 = conditions: Homo sapiens, KE-37;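 note: growth inhibition of KE-37 cells, read out with a cell viability assay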
Description: SANGER: Inhibition of human KE-37 cell growth in a cell viability assay.

KG-1 = conditions: Homo sapiens, KG-1;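 note: growth inhibition of KG-1 cells, read out by a cell viability assay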
Description: SANGER: Inhibition of human KG-1 cell growth in a cell viability assay.

KGN = conditions: Homo sapiens, KGN;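 note: growth inhibition of KGN cells, read out with a cell viability assay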
Description: SANGER: Inhibition of human KGN cell growth in a cell viability assay.

KINGS-1 = conditions: Homo sapiens, KINGS-1;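 note: cell viability assay measuring suppression of KINGS-1 cell growth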
Description: SANGER: Inhibition of human KINGS-1 cell growth in a cell viability assay.

KY821 = conditions: Homo sapiens, KY821;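 note: growth inhibition of human KY821 cells, read out by a cell viability assay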
Description: SANGER: Inhibition of human KY821 cell growth in a cell viability assay.

LB373-MEL-D = conditions: Homo sapiens, LB373-MEL-D;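 note: growth inhibition of the cell line, read out in a cell viability assay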
Description: SANGER: Inhibition of human LB373-MEL-D cell growth in a cell viability assay.

LB831-BLC = conditions: Homo sapiens, LB831-BLC;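 note: growth inhibition of LB831-BLC cells, read out with a cell viability assay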
Description: SANGER: Inhibition of human LB831-BLC cell growth in a cell viability assay.

LC-2-ad = conditions: Homo sapiens, LC-2-ad;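 note: growth inhibition of human LC-2-ad cells, read out with a cell viability assay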
Description: SANGER: Inhibition of human LC-2-ad cell growth in a cell viability assay.

LS-411N = conditions: Homo sapiens, LS-411N
LS-513 = conditions: Homo sapiens, LS-513
Description: SANGER: Inhibition of human LS-513 cell growth in a cell viability assay.

Lu-65 = conditions: Homo sapiens, Lu-65;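 note: growth inhibition of Lu-65 cancer cells, read out by a cell viability assay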
Description: SANGER: Inhibition of human LU-65 cell growth in a cell viability assay.

MOLT-16 = conditions: Homo sapiens, MOLT-16;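 note: growth inhibition of human MOLT-16 cells, read out with a cell viability assay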
Description: SANGER: Inhibition of human MOLT-16 cell growth in a cell viability assay.

MZ2-MEL = conditions: Homo sapiens, MZ2-MEL;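 note: growth inhibition of MZ2-MEL cells read out with a cell viability assay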
Description: SANGER: Inhibition of human MZ2-MEL cell growth in a cell viability assay.

NB10 = conditions: Homo sapiens, NB10;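 note: growth inhibition of NB10 cells, read out by a cell viability assay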
Description: SANGER: Inhibition of human NB10 cell growth in a cell viability assay.

NCI-H1581 = conditions: Homo sapiens, NCI-H1581;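 note: cell growth inhibition read out by a viability assay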
Description: SANGER: Inhibition of human NCI-H1581 cell growth in a cell viability assay.

NCI-H1648 = conditions: Homo sapiens, NCI-H1648;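 note: cell viability assay measuring inhibition of NCI-H1648 cell growth, from the Sanger screening data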
Description: SANGER: Inhibition of human NCI-H1648 cell growth in a cell viability assay.

NCI-H1650 = conditions: Homo sapiens, NCI-H1650;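 note: growth inhibition of human NCI-H1650 cells measured by a cell viability assay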
Description: SANGER: Inhibition of human NCI-H1650 cell growth in a cell viability assay.

NCI-H446 = conditions: Homo sapiens, NCI-H446;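 note: growth inhibition of NCI-H446 cells determined by a cell viability assay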
Description: SANGER: Inhibition of human NCI-H446 cell growth in a cell viability assay.

NEC8 = conditions: Homo sapiens, NEC8;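 note: growth inhibition of human NEC8 cells, read out by a cell viability assay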
Description: SANGER: Inhibition of human NEC8 cell growth in a cell viability assay.

NMC-G1 = conditions: Homo sapiens, NMC-G1;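 note: growth inhibition of the NMC-G1 cell line, measured with a cell viability read-out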
Description: SANGER: Inhibition of human NMC-G1 cell growth in a cell viability assay.

NOMO-1 = conditions: Homo sapiens, NOMO-1;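 note: growth inhibition of human NOMO-1 cells measured by a cell viability assay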
Description: SANGER: Inhibition of human NOMO-1 cell growth in a cell viability assay.

NOS-1 = conditions: Homo sapiens, NOS-1;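 note: growth inhibition of the human NOS-1 cell line, read out with a cell viability assay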
Description: SANGER: Inhibition of human NOS-1 cell growth in a cell viability assay.

P30-OHK = conditions: Homo sapiens, P30-OHK;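 note: growth inhibition of the P30-OHK cell line, read out with a cell viability assay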
Description: SANGER: Inhibition of human P30-OHK cell growth in a cell viability assay.

PSN1 = conditions: Homo sapiens, PSN1;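 note: suppression of growth of human PSN1 cells, read out by a cell viability assay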
Description: SANGER: Inhibition of human PSN1 cell growth in a cell viability assay.

RKO = conditions: Homo sapiens, RKO;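 note: growth inhibition of human RKO cells, read out with a cell viability assay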
Description: SANGER: Inhibition of human RKO cell growth in a cell viability assay.

RPMI-8226 = conditions: Homo sapiens, RPMI-8226
Description: SANGER: Inhibition of human RPMI-8226 cell growth in a cell viability assay.

SBC-1 = conditions: Homo sapiens, SBC-1;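 note: cell viability assay measuring growth inhibition of the SBC-1 cell line, IC50 being the concentration that halves growth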
Description: SANGER: Inhibition of human SBC-1 cell growth in a cell viability assay.

SCH = conditions: Homo sapiens, SCH;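 note: growth inhibition of human SCH cells, read out in a cell viability assay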
Description: SANGER: Inhibition of human SCH cell growth in a cell viability assay.

SW684 = conditions: Homo sapiens, SW684;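 note: growth inhibition of human SW684 cells, measured by a cell viability assay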
Description: SANGER: Inhibition of human SW684 cell growth in a cell viability assay.

SW872 = conditions: Homo sapiens, SW872;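 note: growth inhibition of SW872 cells, read out by a viability assay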
Description: SANGER: Inhibition of human SW872 cell growth in a cell viability assay.

A101D = conditions: Homo sapiens, A101D;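 note: growth inhibition of the cell line, measured with a viability assay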
Description: SANGER: Inhibition of human A101D cell growth in a cell viability assay.

ACN = conditions: Homo sapiens, ACN;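 note: growth inhibition of the human ACN cell line, read out via cell viability testing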
Description: SANGER: Inhibition of human ACN cell growth in a cell viability assay.

BT-474 = conditions: Homo sapiens, BT-474
Description: SANGER: Inhibition of human BT-474 cell growth in a cell viability assay.

TE-10 = conditions: Homo sapiens, TE-10;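 note: growth inhibition of TE-10 cells, measured by a cell viability assay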
Description: SANGER: Inhibition of human TE-10 cell growth in a cell viability assay.

TE-11 = conditions: Homo sapiens, TE-11;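 note: growth inhibition of human TE-11 cells, read out by a cell viability assay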
Description: SANGER: Inhibition of human TE-11 cell growth in a cell viability assay.

TK-10 = conditions: Homo sapiens, TK-10;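 note: growth inhibition of TK-10 cells, read out in a cell viability assay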
Description: SANGER: Inhibition of human TK10 cell growth in a cell viability assay.

NCI-N87 = conditions: Homo sapiens, NCI-N87;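 note: growth inhibition of human NCI-N87 cells, read out with a cell viability assay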
Description: SANGER: Inhibition of human NCI-N87 cell growth in a cell viability assay.

Structure (SMILES): N[C@@H](CSC(c1ccccc1)(c1ccccc1)c1ccccc1)C(=O)O [S-TRITYL-L-CYSTEINE]
- IC50 (CW-2): > 5120 nM
- IC50 (EC-GI-10): > 5120 nM
- IC50 (ES4): > 5120 nM
- IC50 (ES5): > 5120 nM
- IC50 (ES6): > 5120 nM
- IC50 (ES7): > 5120 nM
- IC50 (GI-ME-N): 2280 nM
- IC50 (JVM-2): > 5120 nM
- IC50 (JVM-3): > 5120 nM
- IC50 (K562): 1540 nM
- IC50 (KALS-1): 1320 nM
- IC50 (KARPAS-299): 4180 nM
- IC50 (KARPAS-45): 1690 nM
- IC50 (KE-37): 430 nM
- IC50 (KG-1): > 5120 nM
- IC50 (KGN): 622 nM
- IC50 (KINGS-1): 2160 nM
- IC50 (KY821): 1780 nM
- IC50 (LB373-MEL-D): 2840 nM
- IC50 (LB831-BLC): > 5120 nM
- IC50 (LC-2-ad): 537 nM
- IC50 (LS-411N): 1520 nM
- IC50 (LS-513): > 5120 nM
- IC50 (Lu-65): > 5120 nM
- IC50 (MOLT-16): 1890 nM
- IC50 (MZ2-MEL): > 5120 nM
- IC50 (NB10): > 5120 nM
- IC50 (NCI-H1581): 3600 nM
- IC50 (NCI-H1648): 602 nM
- IC50 (NCI-H1650): > 5120 nM
- IC50 (NCI-H446): 2590 nM
- IC50 (NEC8): 2690 nM
- IC50 (NMC-G1): 3400 nM
- IC50 (NOMO-1): > 5120 nM
- IC50 (NOS-1): 970 nM
- IC50 (P30-OHK): > 5120 nM
- IC50 (PSN1): 1490 nM
- IC50 (RKO): 677 nM
- IC50 (RPMI-8226): 1280 nM
- IC50 (SBC-1): > 5120 nM
- IC50 (SCH): 2500 nM
- IC50 (SW684): > 5120 nM
- IC50 (SW872): 795 nM
- IC50 (A101D): 1730 nM
- IC50 (ACN): 1460 nM
- IC50 (BT-474): > 5120 nM
- IC50 (TE-10): 730 nM
- IC50 (TE-11): 451 nM
- IC50 (TK-10): > 5120 nM

Structure (SMILES): Cn1cnc2c(F)c(Nc3ccc(Br)cc3Cl)c(C(=O)NOCCO)cc21 [SELUMETINIB]
- IC50 (CW-2): > 4000 nM
- IC50 (ES4): > 4000 nM
- IC50 (ES5): > 4000 nM
- IC50 (ES6): > 4000 nM
- IC50 (ES7): > 4000 nM
- IC50 (GI-ME-N): > 4000 nM
- IC50 (JVM-2): > 4000 nM
- IC50 (JVM-3): 701 nM
- IC50 (K562): > 4000 nM
- IC50 (KARPAS-299): > 4000 nM
- IC50 (KARPAS-45): 2080 nM
- IC50 (KE-37): > 4000 nM
- IC50 (KG-1): 895 nM
- IC50 (KGN): > 4000 nM
- IC50 (KINGS-1): > 4000 nM
- IC50 (KY821): 107 nM
- IC50 (LB831-BLC): > 4000 nM
- IC50 (LC-2-ad): > 4000 nM
- IC50 (LS-411N): > 4000 nM
- IC50 (LS-513): 1420 nM
- IC50 (Lu-65): > 4000 nM
- IC50 (MOLT-16): > 4000 nM
- IC50 (MZ2-MEL): 394 nM
- IC50 (NB10): > 4000 nM
- IC50 (NCI-H1581): > 4000 nM
- IC50 (NCI-H1650): > 4000 nM
- IC50 (NCI-H446): > 4000 nM
- IC50 (NCI-N87): > 4000 nM
- IC50 (NEC8): > 4000 nM
- IC50 (NMC-G1): > 4000 nM
- IC50 (NOMO-1): 32 nM
- IC50 (NOS-1): > 4000 nM
- IC50 (P30-OHK): > 4000 nM
- IC50 (PSN1): 366 nM
- IC50 (RKO): 248 nM
- IC50 (RPMI-8226): 740 nM
- IC50 (SBC-1): > 4000 nM
- IC50 (SCH): > 4000 nM
- IC50 (SW684): > 4000 nM
- IC50 (SW872): 1270 nM
- IC50 (A101D): 240 nM
- IC50 (ACN): 567 nM
- IC50 (BT-474): > 4000 nM
- IC50 (TE-10): > 4000 nM
- IC50 (TE-11): > 4000 nM
- IC50 (TK-10): > 4000 nM

Structure (SMILES): CCN(CC)CCNC(=O)c1c(C)[nH]c(/C=C2\C(=O)Nc3ccc(F)cc32)c1C [SUNITINIB]
- IC50 (CW-2): > 8000 nM
- IC50 (EC-GI-10): > 8000 nM
- IC50 (ES4): 2810 nM
- IC50 (ES5): > 8000 nM
- IC50 (ES6): 981 nM
- IC50 (ES7): > 8000 nM
- IC50 (GI-ME-N): > 8000 nM
- IC50 (JVM-2): > 8000 nM
- IC50 (JVM-3): > 8000 nM
- IC50 (K562): > 8000 nM
- IC50 (KALS-1): > 8000 nM
- IC50 (KARPAS-299): 2110 nM
- IC50 (KARPAS-45): 2490 nM
- IC50 (KE-37): 4060 nM
- IC50 (KG-1): 6030 nM
- IC50 (KGN): 2600 nM
- IC50 (KINGS-1): > 8000 nM
- IC50 (KY821): 2800 nM
- IC50 (LB373-MEL-D): > 8000 nM
- IC50 (LB831-BLC): > 8000 nM
- IC50 (LC-2-ad): 1110 nM
- IC50 (LS-411N): > 8000 nM
- IC50 (LS-513): > 8000 nM
- IC50 (Lu-65): > 8000 nM
- IC50 (MOLT-16): 631 nM
- IC50 (MZ2-MEL): > 8000 nM
- IC50 (NB10): > 8000 nM
- IC50 (NCI-H1581): > 8000 nM
- IC50 (NCI-H1648): > 8000 nM
- IC50 (NCI-H1650): > 8000 nM
- IC50 (NCI-H446): > 8000 nM
- IC50 (NEC8): > 8000 nM
- IC50 (NMC-G1): > 8000 nM
- IC50 (NOMO-1): 4340 nM
- IC50 (NOS-1): 15.3 nM
- IC50 (P30-OHK): > 8000 nM
- IC50 (PSN1): 1510 nM
- IC50 (RKO): > 8000 nM
- IC50 (RPMI-8226): 7510 nM
- IC50 (SBC-1): > 8000 nM
- IC50 (SCH): > 8000 nM
- IC50 (SW684): > 8000 nM
- IC50 (SW872): > 8000 nM
- IC50 (A101D): 2780 nM
- IC50 (ACN): > 8000 nM
- IC50 (BT-474): > 8000 nM
- IC50 (TE-10): 2340 nM
- IC50 (TE-11): 1840 nM
- IC50 (TK-10): > 8000 nM
